Laboratory results taken from publication PMC4868691, “β-catenin nuclear translocation in colorectal cancer cells is suppressed by PDE10A inhibition, cGMP elevation, and activation of PKG” (Oncotarget, 2015).
Like-named read-outs stand apart in the source and are kept apart here.

Key:
HT-29 cells [1] = experiment: Growth inhibition with or without H89 pretreatment (CellTiter-Glo); format: cell-based, human; settings: for IC50: Homo sapiens
Method: (§1) C. […] They are assigned to Pf-2545920 because the x-axis label names it as the compound given in dose-response.
(§2) Growth Assays were performed by seeding 5,000 cells per well in a 96-well microtiter plate, or 2,500 cells per well in half-area 96-well microtiter plates. Cells were allowed to settle onto the bottom of the plate before being dosed with compounds in dose-response for 72 hours at 37°C in a humidified incubator containing 5% CO2. After incubation, growth inhibitory activity was assayed using the Cell Titer Glo Assay (Promega) according to manufacturer's recommendations.

HT-29 cells [2] = experiment: Kinase inhibitor pretreatment, VASP phosphorylation after Pf-2545920 stimulation; format: cell-based, human
Method: as §1
(§3) Cell lysates were separated by SDS-PAGE using 12% polyacrylamide gel, 7.5% for PDE10 protein analysis, followed by electrophoretic transfer to nitrocellulose membranes. The membranes were then blocked at room temperature on an orbital shaker for 1 hour in a solution of 5% non-fat dry milk in TBS with 0.1% Tween 20 (TBS-T). Membranes were then incubated overnight at 4 degrees on an orbital shaker with appropriate primary antibodies. Membranes were then washed three times with TBS-T before addition of appropriate secondary antibodies, and incubated at room temperature for 1 hour on an orbital shaker. Membranes were washed and developed using SuperSignal West Enhanced Chemiluminescence Reagent (Pierce).

HT-29 cells [3] = experiment: PARP cleavage by Western blot; format: cell-based, human; settings: HT-29, 0.1 μM KT 5823 for 30 minutes before Pf-2545920 at 5 μM and 10 μM for 6 hours
Method: as §3

PDE11A = PDE11A (Homo sapiens, UniProt Q9HCR9); experiment: Phosphodiesterase isozyme specificity, PDE11A; format: biochemical; settings: @ 10 μM
PDE3A = PDE3A (Homo sapiens, UniProt Q14432); experiment: Phosphodiesterase isozyme specificity, PDE3A; format: biochemical
KM12 = experiment: Growth inhibition assay (Cell Titer Glo), KM12; format: cell-based; settings: Homo sapiens; KM12, 72 hours
Method: as §2

HT-29 colon tumor cells = experiment: Fluorescent cytotoxicity assay (CellTox Green); format: cell-based, human; settings: dose response over time
Method: Cells were plated in 96-well microtiter plates at a […] of 5,000 cells per well and treated with compound or vehicle control at the doses and times indicated. Cytotoxicity was measured using CellTox Green Cytotoxicity Assay (Promega) according to the manufacturer's recommendations.

HCC-2998 = experiment: Growth inhibition assay (Cell Titer Glo), HCC-2998; format: cell-based; settings: Homo sapiens; HCC-2998, 72 hours
Method: as §2

PDE5 = PDE5 (Homo sapiens, UniProt O76074); experiment: Phosphodiesterase isozyme specificity, PDE5; format: biochemical; settings: PDE5, cGMP substrate
PDE4B2 = PDE4B2 (Homo sapiens, UniProt Q07343); experiment: Phosphodiesterase isozyme specificity, PDE4B2; format: biochemical; settings: PDE4B2, cAMP substrate
PDE3B = PDE3B (Homo sapiens, UniProt Q13370); experiment: Phosphodiesterase isozyme specificity, PDE3B; format: biochemical; settings: @ 10 μM
PDE2A = PDE2A (Homo sapiens, UniProt O00408); experiment: Phosphodiesterase isozyme specificity, PDE2A; format: biochemical
COLO-205 = experiment: Growth inhibition assay (Cell Titer Glo), COLO-205; format: cell-based; settings: Homo sapiens; COLO-205, 72 hours
Method: as §2

HCT-116 [4] = experiment: cGMP EIA assay, intracellular cGMP; format: cell-based, human; settings: HCT-116, concentration-dependent
Method: Total levels of cGMP were measured using a competitive ELISA assay (Cayman Chemical) according to the manufacturer's recommendations. A standard curve is generated using samples of known cGMP concentrations provided with the assay and plotted using linear regression to extrapolate samples.

PDE1A = PDE1A (Homo sapiens, UniProt P54750); experiment: Phosphodiesterase isozyme specificity, PDE1A; format: biochemical; settings: @ 10 μM
HCT116 = experiment: Growth inhibition assay (Cell Titer Glo), HCT116; format: cell-based; settings: Homo sapiens, HCT-116; HCT116, 72 hours
Method: as §2

[5] = system: HCT-116 colon tumor cells; experiment: VASP/CREB phosphorylation by Western blot (PKG and PKA activation); format: cell-based, human
Method: as §3

HT-29 cells [6] = experiment: Apoptosis, Annexin V-FITC + PI staining by FACS; format: cell-based, human; settings: 72 hours; for cells staining positive for Annexin V: lower right quadrant; for cells staining positive for both Annexin V and PI: upper right quadrant
Method: Apoptosis was assayed using the Annexin V-FITC + PI apoptosis detection kit from Leinco Technologies according to the manufacturer's recommendations. HT-29 cells were incubated with compounds for 72 hrs at 37°C before being analyzed for apoptosis by FACS.

SW620 = experiment: Growth inhibition assay (Cell Titer Glo), SW620; format: cell-based; settings: Homo sapiens, SW-620; SW620, 72 hours
Method: as §2

[7] = system: panel of nine human colon tumor cell lines; experiment: Growth inhibition, panel of nine human colon tumor cell lines; format: cell-based; settings: 72 hours, read-out: growth inhibition IC50 values, range over all lines
Method: as §2

PDE9A = PDE9A (Homo sapiens, UniProt O76083); experiment: Phosphodiesterase isozyme specificity, PDE9A; format: biochemical; settings: cGMP substrate, @ 10 μM
HCT-15 = experiment: Growth inhibition assay (Cell Titer Glo), HCT-15; format: cell-based; settings: Homo sapiens; HCT-15, 72 hours
Method: as §2

HCT-116 [8] = experiment: Intracellular cAMP levels; format: cell-based, human; settings: HCT-116, concentration-dependent
[9] = system: HT-29 PDE10 knockdown cells; experiment: Growth inhibition, HT-29 PDE10 knockdown cells; format: cell-based; settings: Homo sapiens; HT-29 PDE10 knockdown (shRNA) cells
Method: as §2
(§4) HT-29 PDE10 knockdown cells were generated and described previously. Briefly, lentiviral particles targeting PDE10 were produced in HEK293T cells according to the manufacturer's instruction. HT-29 cells were transduced by the lentivirus particles followed by puromycin selection (5μg/ml) for 2 weeks. Individual cell colonies stably expressing shRNA were selected and isolated in the presence of puromycin, and evaluated by western blotting previously.

SW-480 colon tumor cells = experiment: β-catenin nuclear translocation under Wnt3a stimulation (confocal immunofluorescence); format: cell-based, human; settings: pre-incubation 30 minutes, Wnt3a conditioned media 5 hours
Method: Cover glass bottom 35mm tissue culture dishes were precoated with EmbryoMax 0.1% gelatin from Millipore according to manufacturer's recommendations. Cells were then plated and allowed to grow to 70-90% confluency before treatments. SW-480 cells were serum starved overnight prior to the addition of PDE10 inhibitors at the concentrations indicated. […] Briefly, Wnt3a or parental L-cells lacking Wnt3a were purchased from the ATCC and grown according to the manufacurer's recommendations. Once cells reached confluency, the media was collected and filtered before use. Conditioned media was added to SW-480 cells in order to stimulate nuclear translocation of β-catenin for 5 hours before fixation and staining. Cover glass bottom 35mm tissue culture dishes were precoated with EmbryoMax 0.1% gelatin from Millipore according to manufacturer's recommendations. Cells were then plated and allowed to grow to 70-90% confluency before treatments. Cells were fixed with 10% buffered formalin, before permeabilization with PBS containing 0.1% Trition X-100. Cells were incubated with the appropriate primary antibodies before incubation with secondary antibodies conjugated with Alexa-fluor 488 and mounted using ProLong Gold antifade reagent with DAPI (Molecular Probes-ThermoFisher Scientific). Images were acquired using a Nikon A1 Laser Scanning Confocal microscope. […]

[10] = system: HT-29 vector control cells; experiment: Growth inhibition, HT-29 vector control cells; format: cell-based; settings: Homo sapiens
Method: as §2, §4

colon tumor cell = experiment: Colon tumor cell growth, rolipram; format: cell-based; settings: concentrations up to 100 μM, data not shown
[11] = HT-29, 10 minutes pretreatment in ascending concentrations, then 5μM Pf-2545920 for 1 hour
[12] = HT-29, 30 minutes pretreatment in ascending concentrations, then 5 μM Pf-2545920 for 1 hour
[13] = cAMP substrate, read-out: cAMP IC50
[14] = cGMP substrate, read-out: cGMP IC50

Sequence of PDE3A (Q14432 whole entry, species assumed): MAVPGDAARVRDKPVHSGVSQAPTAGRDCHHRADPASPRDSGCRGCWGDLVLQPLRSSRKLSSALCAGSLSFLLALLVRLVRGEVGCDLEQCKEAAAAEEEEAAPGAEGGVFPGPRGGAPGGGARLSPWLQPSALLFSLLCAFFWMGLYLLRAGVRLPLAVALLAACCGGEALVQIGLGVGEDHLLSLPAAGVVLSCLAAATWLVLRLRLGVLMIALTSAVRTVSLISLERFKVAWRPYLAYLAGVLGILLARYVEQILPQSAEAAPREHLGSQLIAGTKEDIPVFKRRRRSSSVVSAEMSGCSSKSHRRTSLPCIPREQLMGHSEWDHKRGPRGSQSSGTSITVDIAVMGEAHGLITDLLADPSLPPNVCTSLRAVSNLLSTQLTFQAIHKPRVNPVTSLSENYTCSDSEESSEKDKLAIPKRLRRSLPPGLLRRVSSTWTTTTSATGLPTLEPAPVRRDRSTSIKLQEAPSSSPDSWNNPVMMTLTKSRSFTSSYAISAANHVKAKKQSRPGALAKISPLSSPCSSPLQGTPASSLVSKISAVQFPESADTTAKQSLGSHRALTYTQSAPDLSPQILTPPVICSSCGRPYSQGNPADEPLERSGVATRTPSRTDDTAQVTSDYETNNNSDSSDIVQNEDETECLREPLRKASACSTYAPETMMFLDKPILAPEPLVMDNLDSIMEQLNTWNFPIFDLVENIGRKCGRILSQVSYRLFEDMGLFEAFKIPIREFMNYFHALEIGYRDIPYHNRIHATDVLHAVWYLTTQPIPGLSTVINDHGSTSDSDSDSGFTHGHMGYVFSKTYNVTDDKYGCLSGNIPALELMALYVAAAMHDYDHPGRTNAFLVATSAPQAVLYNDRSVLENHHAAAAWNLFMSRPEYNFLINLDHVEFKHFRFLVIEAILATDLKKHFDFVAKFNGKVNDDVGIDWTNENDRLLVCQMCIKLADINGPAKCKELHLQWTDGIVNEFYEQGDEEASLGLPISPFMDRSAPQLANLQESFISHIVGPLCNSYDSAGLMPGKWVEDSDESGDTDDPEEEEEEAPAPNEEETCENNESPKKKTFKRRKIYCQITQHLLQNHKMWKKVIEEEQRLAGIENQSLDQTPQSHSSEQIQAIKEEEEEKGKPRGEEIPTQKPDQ
Sequence of PDE2A (O00408 whole entry, species assumed): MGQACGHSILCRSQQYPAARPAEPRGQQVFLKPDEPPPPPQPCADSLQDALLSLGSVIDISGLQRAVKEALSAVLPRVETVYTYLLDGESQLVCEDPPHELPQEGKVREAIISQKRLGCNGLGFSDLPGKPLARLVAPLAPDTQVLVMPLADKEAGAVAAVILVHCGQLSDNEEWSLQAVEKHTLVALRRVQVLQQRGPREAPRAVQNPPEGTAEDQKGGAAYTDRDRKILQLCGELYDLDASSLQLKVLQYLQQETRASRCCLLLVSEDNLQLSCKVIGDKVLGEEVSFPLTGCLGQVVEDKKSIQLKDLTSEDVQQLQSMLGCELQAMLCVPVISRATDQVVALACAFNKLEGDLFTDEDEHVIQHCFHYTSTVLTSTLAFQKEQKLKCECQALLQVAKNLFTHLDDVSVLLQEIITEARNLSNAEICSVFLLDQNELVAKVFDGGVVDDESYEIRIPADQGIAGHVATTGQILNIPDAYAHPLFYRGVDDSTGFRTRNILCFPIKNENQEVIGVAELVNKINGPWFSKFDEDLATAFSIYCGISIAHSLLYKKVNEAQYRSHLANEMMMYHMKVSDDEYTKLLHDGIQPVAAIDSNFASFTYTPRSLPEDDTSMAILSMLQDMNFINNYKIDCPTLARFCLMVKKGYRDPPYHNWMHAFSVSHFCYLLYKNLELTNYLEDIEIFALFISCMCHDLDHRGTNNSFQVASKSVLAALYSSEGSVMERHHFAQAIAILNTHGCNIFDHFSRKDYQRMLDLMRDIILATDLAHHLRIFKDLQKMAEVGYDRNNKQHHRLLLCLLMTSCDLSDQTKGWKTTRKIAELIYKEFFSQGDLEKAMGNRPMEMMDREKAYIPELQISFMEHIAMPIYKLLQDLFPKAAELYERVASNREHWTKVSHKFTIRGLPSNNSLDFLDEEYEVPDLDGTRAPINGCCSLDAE
Sequence of PDE3B (Q13370 whole entry, species assumed): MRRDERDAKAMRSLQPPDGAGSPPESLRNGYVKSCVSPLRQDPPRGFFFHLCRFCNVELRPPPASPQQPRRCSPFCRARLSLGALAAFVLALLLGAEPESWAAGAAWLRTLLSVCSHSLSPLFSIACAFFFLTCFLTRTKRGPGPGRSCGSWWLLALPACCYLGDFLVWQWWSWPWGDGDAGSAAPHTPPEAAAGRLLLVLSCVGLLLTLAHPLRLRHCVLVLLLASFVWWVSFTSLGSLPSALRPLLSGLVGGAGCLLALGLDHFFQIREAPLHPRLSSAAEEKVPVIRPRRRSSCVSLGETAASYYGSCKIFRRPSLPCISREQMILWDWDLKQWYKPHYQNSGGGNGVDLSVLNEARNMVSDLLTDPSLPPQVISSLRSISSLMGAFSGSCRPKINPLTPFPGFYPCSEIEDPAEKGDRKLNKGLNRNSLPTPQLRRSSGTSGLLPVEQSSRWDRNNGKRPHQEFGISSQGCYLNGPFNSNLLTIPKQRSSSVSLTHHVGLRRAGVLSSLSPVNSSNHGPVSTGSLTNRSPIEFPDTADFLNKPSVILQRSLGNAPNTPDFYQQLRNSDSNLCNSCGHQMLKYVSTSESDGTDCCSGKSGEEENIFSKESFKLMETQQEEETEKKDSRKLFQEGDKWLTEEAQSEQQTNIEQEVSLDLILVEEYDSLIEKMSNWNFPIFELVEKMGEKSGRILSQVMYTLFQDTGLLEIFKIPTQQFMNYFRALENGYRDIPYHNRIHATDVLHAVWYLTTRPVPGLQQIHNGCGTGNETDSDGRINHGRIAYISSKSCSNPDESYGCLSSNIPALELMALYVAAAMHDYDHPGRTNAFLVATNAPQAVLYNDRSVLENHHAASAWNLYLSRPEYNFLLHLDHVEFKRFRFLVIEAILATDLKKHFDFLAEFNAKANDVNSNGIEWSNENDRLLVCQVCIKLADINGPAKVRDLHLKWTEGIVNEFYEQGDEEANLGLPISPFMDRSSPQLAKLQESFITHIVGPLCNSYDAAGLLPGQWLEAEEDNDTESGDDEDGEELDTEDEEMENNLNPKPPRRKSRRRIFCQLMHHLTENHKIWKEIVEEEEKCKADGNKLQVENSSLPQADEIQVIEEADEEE
Sequence of PDE1A (P54750 whole entry, species assumed): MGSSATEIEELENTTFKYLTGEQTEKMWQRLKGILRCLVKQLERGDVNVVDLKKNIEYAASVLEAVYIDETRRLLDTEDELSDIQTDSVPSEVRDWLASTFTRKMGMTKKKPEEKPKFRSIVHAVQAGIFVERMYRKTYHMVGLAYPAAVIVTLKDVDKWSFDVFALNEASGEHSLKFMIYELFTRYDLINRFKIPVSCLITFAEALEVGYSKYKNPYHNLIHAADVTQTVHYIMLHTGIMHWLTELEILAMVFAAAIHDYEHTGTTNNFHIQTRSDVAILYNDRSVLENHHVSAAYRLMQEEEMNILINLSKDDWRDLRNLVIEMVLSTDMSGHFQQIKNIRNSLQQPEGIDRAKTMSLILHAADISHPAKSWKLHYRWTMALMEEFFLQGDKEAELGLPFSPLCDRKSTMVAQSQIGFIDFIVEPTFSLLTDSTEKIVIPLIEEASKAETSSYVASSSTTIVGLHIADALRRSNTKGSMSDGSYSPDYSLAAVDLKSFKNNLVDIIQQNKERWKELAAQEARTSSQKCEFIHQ
Sequence of PDE11A (Q9HCR9 whole entry, species assumed): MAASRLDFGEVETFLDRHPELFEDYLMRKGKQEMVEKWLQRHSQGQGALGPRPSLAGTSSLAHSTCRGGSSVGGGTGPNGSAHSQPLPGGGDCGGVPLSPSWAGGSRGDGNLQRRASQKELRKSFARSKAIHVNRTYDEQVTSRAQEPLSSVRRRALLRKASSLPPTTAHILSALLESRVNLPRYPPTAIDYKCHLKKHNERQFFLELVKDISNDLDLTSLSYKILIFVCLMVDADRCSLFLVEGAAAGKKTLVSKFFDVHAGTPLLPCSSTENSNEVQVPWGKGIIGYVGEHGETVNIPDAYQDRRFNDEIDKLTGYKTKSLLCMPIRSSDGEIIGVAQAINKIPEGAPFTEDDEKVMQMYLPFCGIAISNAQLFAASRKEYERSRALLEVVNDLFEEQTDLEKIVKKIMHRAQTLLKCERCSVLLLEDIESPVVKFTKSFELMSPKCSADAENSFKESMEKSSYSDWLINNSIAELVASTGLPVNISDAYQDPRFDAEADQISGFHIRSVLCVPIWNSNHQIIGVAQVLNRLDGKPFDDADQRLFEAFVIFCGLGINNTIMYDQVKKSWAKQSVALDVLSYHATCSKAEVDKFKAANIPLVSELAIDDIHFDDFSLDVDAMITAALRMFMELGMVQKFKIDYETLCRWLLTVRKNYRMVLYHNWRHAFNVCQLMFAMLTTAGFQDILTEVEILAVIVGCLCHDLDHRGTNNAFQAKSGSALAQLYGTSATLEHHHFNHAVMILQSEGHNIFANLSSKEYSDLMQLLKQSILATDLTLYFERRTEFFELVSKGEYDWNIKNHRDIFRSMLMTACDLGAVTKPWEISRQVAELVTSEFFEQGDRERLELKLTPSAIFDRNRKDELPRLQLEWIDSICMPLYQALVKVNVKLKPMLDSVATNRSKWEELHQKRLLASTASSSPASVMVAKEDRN

O=S(=O)(NCCNC/C=C/c1ccc(Br)cc1)c1cccc2cnccc12 [H89]
effect on sensitivity of cells to growth inhibitory activity of Pf-2545920 (HT-29 cells [1]; HT-29, 0.1μM H89 for 10 minutes before Pf-2545920 for 72 hours): had no effect on the sensitivity
PKA activation (VASP phosphorylation at serine 157) (HT-29 cells [2]; [11]): blocks the activation of PKA in a concentration-dependent manner
PKG activation (VASP phosphorylation at serine 239) (HT-29 cells [2]; [11]): blocking the activation of PKG, albeit at higher concentrations

COC(=O)[C@@]1(OC)C[C@H]2O[C@]1(C)n1c3ccccc3c3c4c(c5c6ccccc6n2c5c31)C(=O)N(C)C4 [KT 5823]
apoptosis by Western blot for cleaved-PARP (HT-29 cells [3]): reduced apoptosis
PKA activity (VASP phosphorylation at serine 157) (HT-29 cells [2]; [12]): minimally affecting the activity of PKA
PKG activation (VASP phosphorylation at serine 239) (HT-29 cells [2]; [12]): caused a decrease in PKG activation

Cn1cc(-c2ccncc2)c(-c2ccc(OCc3ccc4ccccc4n3)cc2)n1 [Pf-2545920, 2-[4-(1-Methyl-4-pyridin-4-yl-1H-pyrazol-3-yl)-phenoxymethyl]-quinoline]
cAMP IC50 (PDE11A; cAMP substrate): Inactive @ 10 μM
cGMP IC50 (PDE11A; cGMP substrate): Inactive @ 10 μM
IC50 (PDE3A; [13]): > 50 µM
IC50 (PDE3A; [14]): > 50 µM
IC50 (KM12): 6.9 µM
cell death (fluorescence intensity) (HT-29 colon tumor cells): induces cell death in a concentration-dependent manner
IC50 (HCC-2998): 18.9 µM
IC50 (PDE5): 8.6 µM
IC50 (PDE4B2): 2.36 µM
cAMP IC50 (PDE3B; cAMP substrate): Inactive @ 10 μM
cGMP IC50 (PDE3B; cGMP substrate): Inactive @ 10 μM
IC50 (PDE2A; [13]): 36.6 µM
IC50 (PDE2A; [14]): > 50 µM
IC50 (COLO-205): 18.5 µM
intracellular cGMP levels (HCT-116 [4]): increased
cAMP IC50 (PDE1A; cAMP substrate): Inactive @ 10 μM
cGMP IC50 (PDE1A; cGMP substrate): Inactive @ 10 μM
IC50 (HCT116): 19.3 µM
phosphorylated VASP (serine 239 and serine 157) ([5]; HCT-116, 5 μM, time course up to 8 hours, time-dependent): increased the level of phosphorylated VASP
PKG and PKA activation (phosphorylation of VASP and CREB) ([5]; HCT-116, dose response, 1 hour): activated both PKG and PKA
cells staining positive for Annexin V (HT-29 cells [6]; HT-29, 10 μM): 25.9%
cells staining positive for both Annexin V and PI (HT-29 cells [6]; HT-29, 10 μM): 31.9%
cells staining positive for Annexin V (HT-29 cells [6]; HT-29, 25 μM): 38.2%
cells staining positive for both Annexin V and PI (HT-29 cells [6]; HT-29, 25 μM): 31.4%
IC50 (SW620): 19.6 µM
IC50 (HT-29 cells [1]; HT-29, pretreated with 0.1μM H89 for 10 minutes, 72 hours): 4.8 µM
IC50 (HT-29 cells [1]; HT-29, without H89, 72 hours): 4.6 µM
IC50 [7]: 6.9 to 19.6 µM
cGMP IC50 (PDE9A): Inactive @ 10 μM
IC50 (HCT-15): 14.4 µM
intracellular cAMP levels (HCT-116 [8]): increased
IC50 [9]: 13.4 µM
β-catenin in the nucleus (SW-480 colon tumor cells; SW-480, 10 μM): reduced the amount of β-catenin in the nucleus
total protein levels of β-catenin (SW-480 colon tumor cells; SW-480, 25 μM): total protein levels of β-catenin are decreased
IC50 [10]: 1.2 µM

COc1ccc(C2CNC(=O)C2)cc1OC1CCCC1 (stereo not drawn) [rolipram]
colon tumor cell growth (colon tumor cell): did not affect colon tumor cell growth
